Test results reported in ChEMBL document CHEMBL1157445, “Design, synthesis and evaluation of isaindigotone derivatives as acetylcholinesterase and butyrylcholinesterase inhibitors” (Bioorg Med Chem Lett, 2008).

What was measured:
Acetylcholinesterase [1] = biological target: Acetylcholinesterase (Homo sapiens, UniProt P22303); test: Inhibition of AchE
Cholinesterase [2] = biological target: Cholinesterase (Homo sapiens, UniProt P06276); test: Inhibition of BuchE
Cholinesterase [3] = biological target: Cholinesterase (Equus caballus, UniProt P81908)
Description: Inhibition of equine serum BuchE

Acetylcholinesterase [4] = biological target: Acetylcholinesterase (Electrophorus electricus, UniProt O42275)
Acetylcholinesterase (Electrophorus electricus, UniProt O42275), sequence (O42275 whole entry): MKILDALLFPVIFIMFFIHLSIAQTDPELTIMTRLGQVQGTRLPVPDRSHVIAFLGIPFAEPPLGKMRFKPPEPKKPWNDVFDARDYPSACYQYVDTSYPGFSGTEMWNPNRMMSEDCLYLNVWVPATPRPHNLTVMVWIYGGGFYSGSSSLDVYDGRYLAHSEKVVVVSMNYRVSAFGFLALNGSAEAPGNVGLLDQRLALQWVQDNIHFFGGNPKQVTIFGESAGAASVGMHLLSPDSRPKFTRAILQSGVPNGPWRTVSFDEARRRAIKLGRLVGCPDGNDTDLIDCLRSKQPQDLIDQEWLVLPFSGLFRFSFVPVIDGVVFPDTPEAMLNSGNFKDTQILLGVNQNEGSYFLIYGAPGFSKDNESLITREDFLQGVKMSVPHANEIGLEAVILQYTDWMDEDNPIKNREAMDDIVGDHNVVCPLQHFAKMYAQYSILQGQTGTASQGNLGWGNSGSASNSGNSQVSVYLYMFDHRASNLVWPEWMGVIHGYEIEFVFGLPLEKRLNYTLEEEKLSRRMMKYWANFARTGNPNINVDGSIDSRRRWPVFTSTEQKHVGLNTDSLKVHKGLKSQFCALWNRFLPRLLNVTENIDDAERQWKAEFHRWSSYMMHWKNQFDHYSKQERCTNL
Description: Inhibition of electric eel AchE

Cholinesterase (Equus caballus, UniProt P81908), sequence (P81908 whole entry): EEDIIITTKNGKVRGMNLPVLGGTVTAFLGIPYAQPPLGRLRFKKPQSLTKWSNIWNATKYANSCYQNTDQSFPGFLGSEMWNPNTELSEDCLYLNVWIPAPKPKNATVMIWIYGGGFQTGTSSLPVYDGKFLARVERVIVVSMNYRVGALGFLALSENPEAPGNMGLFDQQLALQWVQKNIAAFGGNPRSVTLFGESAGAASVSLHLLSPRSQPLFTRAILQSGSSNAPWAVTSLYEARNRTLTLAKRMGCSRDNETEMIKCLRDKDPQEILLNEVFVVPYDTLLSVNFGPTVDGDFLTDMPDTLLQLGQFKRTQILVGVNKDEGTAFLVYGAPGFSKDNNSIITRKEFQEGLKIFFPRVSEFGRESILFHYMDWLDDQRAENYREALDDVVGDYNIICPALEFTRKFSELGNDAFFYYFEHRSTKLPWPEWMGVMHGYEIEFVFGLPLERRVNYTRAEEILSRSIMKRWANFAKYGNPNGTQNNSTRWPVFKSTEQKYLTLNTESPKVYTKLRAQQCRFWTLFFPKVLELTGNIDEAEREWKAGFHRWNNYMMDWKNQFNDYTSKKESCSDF
Cholinesterase (Homo sapiens, UniProt P06276), sequence (P06276 whole entry): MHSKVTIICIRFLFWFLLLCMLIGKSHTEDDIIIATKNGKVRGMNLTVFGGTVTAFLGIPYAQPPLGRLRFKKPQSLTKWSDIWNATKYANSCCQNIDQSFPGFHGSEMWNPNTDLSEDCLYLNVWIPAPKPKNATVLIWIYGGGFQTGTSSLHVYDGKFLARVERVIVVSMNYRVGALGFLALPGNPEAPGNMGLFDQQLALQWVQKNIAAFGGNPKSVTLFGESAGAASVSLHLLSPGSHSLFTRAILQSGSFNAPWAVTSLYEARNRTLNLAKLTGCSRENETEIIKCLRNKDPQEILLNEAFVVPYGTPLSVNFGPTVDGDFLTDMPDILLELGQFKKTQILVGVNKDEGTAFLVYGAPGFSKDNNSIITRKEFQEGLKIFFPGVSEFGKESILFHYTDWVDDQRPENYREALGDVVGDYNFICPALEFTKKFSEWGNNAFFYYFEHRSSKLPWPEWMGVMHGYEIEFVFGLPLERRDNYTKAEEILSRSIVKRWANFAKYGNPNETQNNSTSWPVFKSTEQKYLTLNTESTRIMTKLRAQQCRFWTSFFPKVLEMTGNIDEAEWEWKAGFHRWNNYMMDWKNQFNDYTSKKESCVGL
Acetylcholinesterase (Homo sapiens, UniProt P22303), sequence (P22303 whole entry): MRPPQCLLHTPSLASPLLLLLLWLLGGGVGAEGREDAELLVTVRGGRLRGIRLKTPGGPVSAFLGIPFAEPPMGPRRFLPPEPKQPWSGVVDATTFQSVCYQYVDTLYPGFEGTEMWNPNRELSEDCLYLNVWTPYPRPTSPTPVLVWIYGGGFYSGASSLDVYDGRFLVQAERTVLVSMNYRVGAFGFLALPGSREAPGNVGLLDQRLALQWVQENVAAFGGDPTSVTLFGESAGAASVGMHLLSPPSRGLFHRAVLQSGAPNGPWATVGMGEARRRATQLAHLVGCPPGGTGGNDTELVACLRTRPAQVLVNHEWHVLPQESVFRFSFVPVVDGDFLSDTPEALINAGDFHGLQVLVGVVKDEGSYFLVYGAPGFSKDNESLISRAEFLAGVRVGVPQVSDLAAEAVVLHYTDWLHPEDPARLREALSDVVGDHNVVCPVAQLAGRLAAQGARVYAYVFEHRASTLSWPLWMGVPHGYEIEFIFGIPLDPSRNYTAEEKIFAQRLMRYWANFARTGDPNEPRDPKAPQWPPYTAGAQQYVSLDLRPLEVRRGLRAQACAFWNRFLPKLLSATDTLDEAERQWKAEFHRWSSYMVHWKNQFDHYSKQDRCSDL

Row | Structure (SMILES) | IC50 (Acetylcholinesterase [1]) | IC50 (Cholinesterase [2]) | IC50 (Cholinesterase [3]) | IC50 (Acetylcholinesterase [4])
1 | O=c1c2ccccc2nc2n1CCC2 [DEOXYVASICINONE] | 82.5 µM | 25.1 µM |  | 
2 | O=c1c2ccccc2nc2n1CCC2Cc1ccc(OCCCN2CCCCC2)cc1 (stereo not drawn) |  |  | 5.72 µM | 5.58 µM
3 | CCN(CC)CCCOc1ccc(/C=C2\CCn3c2nc2ccccc2c3=O)cc1 |  |  | 7.12 µM | 2.41 µM
4 | O=c1c2ccccc2nc2n1CC/C2=C\c1ccc(OCCCN2CCCCC2)cc1 |  |  | 1.66 µM | 0.72 µM
5 | CCN(CC)CCOc1ccc(CC2CCn3c2nc2ccccc2c3=O)cc1 (stereo not drawn) |  |  | > 20 µM | 1.62 µM
6 | CCN(CC)CCOc1ccc(/C=C2\CCn3c2nc2ccccc2c3=O)cc1 |  |  | 12.7 µM | 0.48 µM
7 | O=c1c2ccccc2nc2n1CCC2Cc1ccc(OCCN2CCCCC2)cc1 (stereo not drawn) |  |  | 8.29 µM | 0.75 µM
8 | CCN(CC)CCCOc1ccc(CC2CCn3c2nc2ccccc2c3=O)cc1 (stereo not drawn) |  |  | > 20 µM | 8.95 µM
9 | O=c1c2ccccc2nc2n1CC/C2=C\c1ccc(OCCN2CCCCC2)cc1 |  |  | 2.99 µM | 0.16 µM
